This is an account of results in patent US20210363173A1, “NEUROSTERIOD DERIVATIVES AND USES THEREOF” (ACERUS BIOPHARMA INC., priority 2018, published 2021).

A word on the solubility: it is how much of the substance goes into solution per volume.

Structures are written as SMILES. Values after ≈ are worked out from the molar mass of the structure shown.

Data set [1] can be described thus: Solubility of esters in oils (solvent added in increments until a room temperature solubility is obtained). The note with it: for Solubility Limit / solubility: castor oil, room temperature; for solubility: oil or lipid, thermodynamic from solid, read-out: Solubility Limit. The class given is physicochemical. The method, then:
About 150 mg samples of each drug substance in Table are placed in about 300 mg of a test solvent in a test tube. The samples are swirled and gently heated with a warm water bath. Additional solvent is added in about 100 mg increments until solubility is reached. The samples are cooled overnight and if precipitation is observed, then more solvent is again added in portions until a room temperature solubility is obtained. […] Ganaxolone enanthate is a liquid and appeared miscible in the oils tested.

The subject of a further data set is migraine. The note with it: phase 2 clinical trial for migraine; cited from earlier work.
The conditions of data set [2]: post-oral administration; cited from earlier work.

On to `CCCCCCC(=O)OC1(C)CCC2(C)C(CCC3C2CCC2(C)C(C(C)=O)CCC32)C1` (stereo not shown) [Ganaxalone Enanthate], for which, in data set [1] (oils tested, substance is a liquid), the “Miscibility in the oils tested” value is “miscible”.

In the case of `CC(=O)[C@H]1CC[C@H]2[C@@H]3CC[C@H]4C[C@H](O)CC[C@]4(C)[C@H]3CC[C@]12C` [Allopregnanolone, 5α-pregnan-3α-ol-20-one], in data set [1], the “Solubility Limit” value is listed as less than 1 % w/w and the solubility was less than 10000 µg/mL.

As to `CC(=O)[C@H]1CC[C@H]2[C@@H]3CC[C@H]4C[C@](C)(O)CC[C@]4(C)[C@H]3CC[C@]12C` [Ganaxalone, 3a-hydroxy-3-methyl-5a-pregnan-20-one], in the data set on migraine, the “benefit on time to pain relief” value is “failed to show benefit”. In data set [2], the “drug recovered in feces” value is roughly 80%. In addition, in data set [1], the “Solubility Limit” value is on record as roughly 1 % w/w and the solubility was roughly 10000 µg/mL (≈ 30.1 mM).
